{"source": "patent US20260000655A1", "about": "“PHARMACEUTICAL COMPOSITION FOR USE IN PREVENTION OR TREATMENT OF LIFESTYLE-RELATED DISEASE” (priority 2022, published 2026)", "key": {"[1]": {"system": "liver cell model HepG2 cells", "experiment": "Cytotoxicity (MTT reagent)", "format": "cell-based, human", "settings": "HPH-15 1 μM, 10 μM or 50 μM, 24 hours", "procedure": "(§1) It was examined whether using HPH-15 as a drug caused any cytotoxicity.\n(§2) The myotube cell model L6-GLUT4myc, the liver cell model HepG2 cells, and the adipocyte model 3T3-L1 used in Example 1 were each seeded onto a 24-well plate (1×10^5 cells/well, […] of culture liquid) and cultured overnight. Then, a DMSO solution (1%) containing HPH-15 (final concentration: 1 μM, 10 μM or 50 μM) was added to the medium, and the cells were further cultured for 24 hours. As a control, only DMSO solution (1%) was added, and the cells were cultured for 24 hours in the same manner. Next, […] of MTT reagent (3-(4,5-dimethyl-2-thiazolyl)-2,5-diphenyl-2H-tetrazolium bromide: 1.1 mg/mL: Dojindo Laboratories) was added to each well, and the cells were further cultured for 4 hours. After collecting the precipitated crystals, the supernatant was removed and DMSO ([…]) was added to completely dissolve the crystals. Cytotoxicity was evaluated by measuring the absorbance (550 nm) of the solution and determining the number of viable cells."}, "[2]": {"system": "adenosine monophosphate-activated protein kinase (AMPK)", "experiment": "Activation of AMPK (p-AMPK/AMPK, Western blotting) in adipocyte model 3T3-L1", "format": "cell-based, mouse", "settings": "3T3-L1 adipocytes; HPH-15 at 1/200th the concentration of metformin (2 mM); 24 hours", "text": "(§3) The tissues involved in glucose uptake and glucose metabolism are mainly the muscle, the liver, and the fat. Thus, using a cell model of each tissue, the relationship between HPH-15 and activation of adenosine monophosphate-activated protein kinase (AMPK) was examined. Note that AMPK is known as a therapeutic target for diabetes. AMPK acts as an energy sensor, and when it detects a decrease in ATP serving as an intracellular energy source, it suppresses the synthesis of glucose, fats, and proteins and produces ATP. Exercise therapy for diabetes is based on this mechanism. Further, AMPK has been drawing attention as a factor that improves insulin resistance.\n(§4) As a muscle cell model to be used, rat myoblast cell line L6-GLUT4myc (myoblasts expressing myc-tagged GLUT4) was cultured in a minimal essential medium a-MEM (10% FBS) and differentiated into myotubes. Differentiation into myotubes was performed by culturing L6-GLUT4 cells in a-MEM (10% FBS) and then changing the medium to a-MEM (2% FBS), followed by culturing for 6 days. Human HepG2 cell line was used as a liver cell model. As an adipocyte model to be used, mouse 3T3-L1 preadipocyte cell line was differentiated into adipocytes. Differentiation into adipocytes was performed as follows. […]\n(§5) Next, bands of AMPK and p-AMPK were quantified using ImageJ to determine a ratio of activated AMPK relative to AMPK (p-AMPK/AMPK)."}, "[3]": {"system": "adenosine monophosphate-activated protein kinase (AMPK)", "experiment": "Activation of AMPK (p-AMPK/AMPK, Western blotting) in liver cell model HepG2", "format": "cell-based, human", "settings": "HPH-15 at 1/40th the concentration of metformin (2 mM), 24 hours", "text": "as §3, §4, §5"}, "adipocyte model 3T3-L1": {"system": "adipocyte model 3T3-L1", "experiment": "Cytotoxicity (MTT reagent)", "format": "cell-based, mouse", "settings": "HPH-15 1 μM, 10 μM or 50 μM, 24 hours", "procedure": "as §1, §2"}}}
{"molecule": "CC(C)(C)SCCNC(=S)c1cccc(C(=S)NCCSC(C)(C)C)n1", "note": "[HPH-15]", "values": [{"measurement": "cytotoxicity (number of viable cells)", "setting": "[1]", "value": "no cytotoxicity was confirmed"}, {"measurement": "AMPK activation (p-AMPK/AMPK) compared to when metformin was used", "setting": "[2]", "value": "approximately 170%"}, {"measurement": "AMPK activation (p-AMPK/AMPK) compared to when metformin was used", "setting": "[3]", "value": "approximately 40%"}, {"measurement": "cytotoxicity (number of viable cells)", "setting": "adipocyte model 3T3-L1", "value": "no cytotoxicity was confirmed"}]}
